The values below come from patent US20240294876A1, “METHODS FOR THE EXPANSION OF HUMAN GRANULOCYTE-MACROPHAGE PROGENITORS AND APPLICATIONS THEREOF” (University of Southern California, priority 2021, published 2024).

The test system of one experiment is mouse GMPs. Briefly: Ex vivo expansion of mouse bone marrow-derived cells / mouse GMPs. Format: cell-based. The text has this: (A) Schematic of the experimental design to identify growth factors and small molecules that can promote expansion of mouse bone marrow-derived stem cells. (B) Representative phase-contrast images of mouse bone marrow cells cultured in N2B27 supplemented with the indicated small molecule inhibitors for 7 days. (C) Representative phase-contrast images of mouse bone marrow cells cultured in N2B27 supplemented with SCF plus GDC0879 or SB590885 for 3 passages. (D) Cell growth curves. Bone marrow cells isolated from C57BL/6J mice were plated into 24-well plates at a density of 2×10^5 cells/well and cultured in B7 medium supplemented with the indicated small molecules/growth factor. Cells were counted and passaged every 3 days. Data are represented as mean±SD from three independent experiments. (E) Bone marrow cells isolated from C57BL/6J mice were cultured in B7 medium supplemented with SCF/2i. Cells were passaged every 3 days. Representative phase-contrast pictures showing SCF/2i cells at different passages. (F) Cytogenetic analysis of SCF/2i cells using the GWT banding method. Bone marrow cells isolated from a female C57BL/6J mouse were expanded in SCF/2i for 8 passages before used for cytogenetic analysis. […] (G) Sequential images of individual bone marrow cells during expansion in B7 medium supplemented with SCF/2i. SCF/2i-expanded bone marrow cells were plated into 96-well plates at a density of 50 cells/well and cultured in SCF/2i. Sequential images were taken using the Keyence BZ-X710 microscopy every 24 hours. 15.7±4.0 colonies formed per well on day 4 (n=3×96). Data are represented as mean±SD from three independent experiments.
Mouse GMP derivation, expansion, and differentiation. Cells were cultured at 37° C. in a 5% CO2 water jacket incubator (Thermo Scientific). Bone marrow cells isolated from C57BL/6J, mTmG or CAG-Cas9-EGFP mice were plated into 6-well plates at a density of 2×10^6 cells/well and cultured in 2 mL B7 medium supplemented with 50 ng/mL SCF, 1 μM GDC-0879, and 10 μM SKL2001 (SCF/2i). After 3-4 days, cells were dissociated into single-cell suspension by pipetting up and down and replated into 6-well plates at a density of 2×10^6 cells/well and cultured in 2 mL B7 medium supplemented with SCF/2i. After 2 passages in SCF/2i, the majority of cells were GMPs. GMPs were routinely passaged every 3 days. To induce differentiation, GMPs were plated into 10 cm tissue culture dishes and cultured in RPMI-1640 medium containing 10% FBS and supplemented with either 20 ng/mL M-CSF (for macrophage differentiation) or 20 ng/mL G-CSF (for granulocyte differentiation). GMP-derived macrophages were harvested on day 7 (medium was changed once on day 4) and GMP-derived granulocytes were harvested on day 3 and used for the further experiments.
Development of defined conditions for the long-term ex vivo expansion of hematopoietic stem/progenitor cells. To develop conditions for the long-term expansion of stem or progenitor cells of the hematopoietic system, screening was conducted to identify small molecules and growth factors/cytokines that can promote their ex vivo expansion (see FIG. 3A). Specifically, bone marrow cells isolated from adult C57BL/6 mice were plated into 96-well plates in serum-free N2B27 medium. Then a first-round small molecule screening was performed. It was reasoned that if a small molecule can block differentiation or promote expansion of stem cells, these stem cells should form colonies with a uniform cell morphology. […] Upon passaging, however, no new colonies were formed in culture with any of the 5 small molecule inhibitors. A second-round screening was conducted to identify growth factors/cytokines that could further improve the expansion of the colonies.
More importantly, these cells could be expanded robustly at clonal density (see FIG. 3G).
SCF/2i-expanded cells are GMPs. […]

Another experiment has as its system human GMPs. Briefly: Ex vivo expansion of human GMPs sorted from cord blood. Type of experiment: cell-based. To be noted: added to SCF/GDC-0879. The text has this:
(A) Growth curves of human GMPs. Human GMPs were FACS sorted from cord blood and cultured in the designated conditions. Cells were passaged every 3 days and replated into 12-well plates at a density of 1×10^5 cells/well. Data are represented as mean±SD from three independent experiments. (B) Structure of TN-2-30. (C) Representative phase-contrast images of human GMPs cultured in modified SCF/2i. P, passage number. (D) Sorted human GMPs were expanded in modified SCF/2i and induced to differentiate towards granulocytes by treatment with 30 ng/ml human G-CSF for 10 days. Differentiated cells were analyzed by Giemsa staining (upper panel) and flow cytometry (lower panel). Flow cytometry data are represented as mean±SD from three independent experiments. (E) Relative MPO activities of human GMPs and human GMP-derived granulocytes stimulated with or without PMA for 2 hours. Differentiated cells generated in (D) were plated into 96-well plates at a density of 2×10^4 cells/well and stimulated with or without PMA for 2 hours, after which MPO activities in the supernatants were measured. Data are represented as mean±SD from three independent experiments. […] (H) Differentiated cells generated in (D) and (F) were plated into 96-well plates at a density of 2×10^4 cells/well and stimulated with or without 500 ng/ml LPS for 6 hours, after which cytokine secretion in the supernatants was measured by ELISA. […]

As to `O=C(NCCCn1ccnc1)c1cc(-c2ccco2)on1` [SKL2001], the “long-term expansion of a uniform cell population” value in the experiment with mouse GMPs (combined with SCF and GDC-0879) is given as “allowed for the long-term expansion”. Further, in the experiment on mouse GMPs (second screening, with GDC-0879), the “interaction with GDC-0879 in promoting expansion of the uniform round-shaped cells” value was “acted synergistically”. Further, the “requirement for expansion of β-catenin knockout mouse GMPs” value in the experiment with mouse GMPs (β-catenin knockout mouse GMPs) is on record as “still required the addition of SKL2001”. Besides, in the experiment on human GMPs, the “effect of addition on expansion of human GMPs” value is “only marginally improved”.
